Source: ChEMBL document CHEMBL5360625, “Design, Synthesis, and Antitumor Activity Evaluation of 2-Arylmethoxy-4-(2,2'-dihalogen-substituted biphenyl-3-ylmethoxy) Benzylamine Derivatives as Potent PD-1/PD-L1 Inhibitors” (J Med Chem, 2023)

Tests used:
[1] = molecular target: Programmed cell death protein 1/Programmed cell death 1 ligand 1 (Homo sapiens, UniProt Q9NZQ7); assay: Inhibition of PD-1/PD-L1 interaction (unknown origin) incubated for 1 hr by HTRF assay; type: protein-complex assay
[2] = system: PBMC; assay: Cytotoxicity against human PBMC cells assessed as reduction in cell viability at 1 to 4 uM measured after 48 hrs by CCK-8 assay; type: toxicity, cell-based; details: dose 1-4 µM

Sequence of Programmed cell death protein 1/Programmed cell death 1 ligand 1 (Q15116 whole entry): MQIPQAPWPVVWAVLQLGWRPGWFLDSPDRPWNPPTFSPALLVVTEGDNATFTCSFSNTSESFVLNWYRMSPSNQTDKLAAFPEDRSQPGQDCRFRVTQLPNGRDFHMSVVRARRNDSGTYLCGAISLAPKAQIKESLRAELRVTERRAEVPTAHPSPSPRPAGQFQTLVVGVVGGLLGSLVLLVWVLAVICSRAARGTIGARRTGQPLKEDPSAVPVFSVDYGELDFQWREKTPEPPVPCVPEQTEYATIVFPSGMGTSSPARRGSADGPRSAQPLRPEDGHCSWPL
Sequence of Programmed cell death protein 1/Programmed cell death 1 ligand 1 (Q9NZQ7 whole entry): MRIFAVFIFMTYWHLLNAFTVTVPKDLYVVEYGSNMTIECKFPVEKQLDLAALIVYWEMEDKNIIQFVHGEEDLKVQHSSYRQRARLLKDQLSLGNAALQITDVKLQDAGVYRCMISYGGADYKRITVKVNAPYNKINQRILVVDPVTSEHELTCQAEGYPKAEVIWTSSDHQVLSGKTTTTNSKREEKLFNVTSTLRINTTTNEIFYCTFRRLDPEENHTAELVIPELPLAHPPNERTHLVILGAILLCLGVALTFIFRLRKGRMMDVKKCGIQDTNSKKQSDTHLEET

N#Cc1cccc(COc2cc(OCc3cccc(-c4ccccc4F)c3F)ccc2CNCCO)c1 gave an IC50 [1] of 130 µM.
For COc1c(COc2ccc(CNCCNC(C)=O)c(OCc3cccc(C#N)c3)c2)cccc1-c1ccc2c(c1)OCCO2, the IC50 [1] was 2.9 µM.
In the case of COC(=O)c1ccc(COc2ccc(CNc3cccc(-c4ccccc4)c3OC)cc2CNCCO)cc1, the IC50 [1] is reported as > 32 µM.
For N#Cc1cccc(COc2cc(OCc3cccc(-c4ccccc4F)c3Cl)ccc2CN2CCC(O)C2)c1 (centres undefined), the IC50 [1] was 19.2 µM and the Activity [2] was “Non-Toxic”.
COc1c(NCc2ccc(OCc3ccc(F)cc3)c(CNCCO)c2)cccc1-c1ccc2cc[nH]c2c1 was tested, and the IC50 [1] was > 32 µM.
COc1c(COc2ccc(CN[C@@H](CO)C(=O)O)c(OCc3cccc(C#N)c3)c2)cccc1-c1ccccc1 was tested, and the IC50 [1] was 2.6 µM.
COc1c(COc2ccc(CNCCNC(C)=O)c(OCc3ccc(C#N)cc3)c2)cccc1-c1ccccc1 showed an IC50 [1] of 22.7 µM.
Work on COc1c(COc2ccc(CNCCNC(C)=O)c(OCc3cncc(C#N)c3)c2)cccc1-c1ccccc1F yielded an IC50 [1] of 1000 µM.
For COc1c(NCc2ccc(OCc3cccc(C#N)c3)c(CNCCNC(C)=O)c2)cccc1-c1ccccc1, the IC50 [1] was > 32 µM.
COc1c(COc2ccc(CNCCO)c(OCc3ccc(F)cc3)c2)cccc1-c1ccccc1 was tested, and the IC50 [1] was 8.6 µM.
For N#Cc1cccc(COc2cc(OCc3cccc(-c4ccccc4F)c3F)ccc2CN[C@@H](CO)C(=O)O)c1, the IC50 [1] was 115 µM.
With COc1c(NCc2ccc(OCc3cccc(C#N)c3)c(CNCCO)c2)cccc1-c1ccc2ccccc2c1 the IC50 [1] was > 32 µM.
Compound COc1c(COc2ccc(CNCCNC(C)=O)c(OCc3cccnc3F)c2)cccc1-c1ccccc1 has an IC50 [1] of 12.9 µM.
Compound Cc1c(COc2ccc(CNCCO)c(OCc3cccc(C#N)c3)c2)cccc1-c1ccccc1F has an IC50 [1] of 37.6 µM.
For COc1c(COc2ccc(CNCCNC(C)=O)c(OCc3cccc(C#N)c3)c2)cccc1-c1ccc(F)cc1, the IC50 [1] was 16 µM.
Cc1c(COc2ccc(CNCCO)c(OCc3cncc(C#N)c3)c2)cccc1-c1ccccc1F was tested, and the IC50 [1] was 8.5 µM and the Activity [2] was “Non-Toxic”.
For CC(=O)NCCNCc1ccc(OCc2cccc(-c3ccccc3F)c2C)cc1OCc1cncc(C#N)c1, the IC50 [1] was 24.3 µM and the Activity [2] was “Non-Toxic”.
With N#Cc1cncc(COc2cc(OCc3cccc(-c4ccccc4F)c3Cl)ccc2CN[C@@H](CO)C(=O)O)c1 the IC50 [1] was 7.3 µM and the Activity [2] was “Non-Toxic”.
COc1c(COc2ccc(CNCCNC(C)=O)c(OCc3cccc(C#N)c3)c2)cccc1-c1cccc(F)c1 gave an IC50 [1] of 5.5 µM.
In the case of COc1c(COc2ccc(CNCC(=O)O)c(OCc3cccc(C#N)c3)c2)cccc1-c1ccccc1, the IC50 [1] is reported as 5.5 µM.
In the case of COc1c(COc2ccc(CNCCNC(C)=O)c(OCc3cccc(C#N)c3)c2)cccc1-c1ccc2ccccc2c1, the IC50 [1] is reported as 16 µM.
Work on COc1c(COc2ccc(CNCCNC(C)=O)c(OCc3cncc(C#N)c3)c2)cccc1-c1ccccc1 yielded an IC50 [1] of 1.6 µM.
Work on COc1c(COc2ccc(CNCCNC(C)=O)c(OCc3cccc(C)c3)c2)cccc1-c1ccccc1 yielded an IC50 [1] of 18.3 µM.
COc1c(NCc2ccc(OCc3ccc(F)cc3)c(CNCCNC(C)=O)c2)cccc1-c1ccc2cc[nH]c2c1 was tested, and the IC50 [1] was > 32 µM.
With COc1c(COc2ccc(CNCCNC(C)=O)c(OCc3cccc(C#N)c3)c2)cccc1-c1ccccc1 the IC50 [1] was 23.3 µM.
For N#Cc1cccc(COc2cc(OCc3cccc(-c4ccccc4F)c3Cl)ccc2CNCCO)c1, the IC50 [1] was 12.7 µM and the Activity [2] was “Non-Toxic”.
For COc1c(COc2ccc(CNCCO)c(OCc3cccc(C#N)c3)c2)cccc1-c1ccccc1, the IC50 [1] was 2.4 µM.
COc1c(COc2ccc(OCc3cccc(C#N)c3)c(CNCCO)c2)cccc1-c1ccccc1 was tested, and the IC50 [1] was > 32 µM.
In the case of COc1c(COc2cc(OCc3cncc(C#N)c3)c(CNCCO)cc2Cl)cccc1-c1ccccc1F, the IC50 [1] is reported as 348 µM.
